Results published in patent US10052320B2, “Substituted quinoxalines as FGFR kinase inhibitors” (ASTEX THERAPEUTICS LIMITED, priority 2011, dated 2018).

What was measured:
Type in all cases: cell-based
[1] = biological target: Ba/F3-FGFR1-transfected cells (Homo sapiens, UniProt P11362); assay: Ba/F3-FGFR1 (minus IL3) cellular proliferation assay, Alamar Blue; settings: for BAF3-FGFR 1 (MIN IL3) 384 well pIC50: minus IL3, 384 well
Protocol: Ba/F3-FGFR1 (Minus IL3 or Plus IL3) (Cellular Proliferation Assay)
(§1) Cells were put in an incubator at 37° C. and 5% CO2. After 24 hours, 10 μl of Alamar Blue solution (0.5 mM K3Fe(CN)6, 0.5 mM KaFe(CN)6, 0.15 mM Resazurin and 100 mM Phosphate Buffer) was added to the wells, incubated for 4 hours at 37° C. and 5% CO2 before RFU's (Relative Fluorescence Units) (ex. 540 nm., em. 590 nm.) were measured in a flurorescence plate reader. […]
(§2) In a 96 well plate, 180 μl cell culture medium (phenol red free RPMI-1640, 10% FBS, 2 mM L-Glutamine and 50 μg/ml Gentamycin) containing 10000 cells per well of Ba/F3-FGFR1-transfected cells were pipette and 20 μl of compound dilution in DMSO was added. Cells were put in an incubator at 37° C. and 5% CO2. After 24 hours, 40 μl of Alamar Blue solution (0.5 mM K3Fe(CN)6, 0.5 mM KaFe(CN)6, 0.15 mM Resazurin and 100 mM Phosphate Buffer) was added to the wells, incubated for 4 hours at 37° C. and 5% CO2 before RFU's (Relative Fluorescence Units) (ex. 540 nm., em. 590 nm.) were measured in a flurorescence plate reader.

[2] = biological target: Ba/F3-FGFR3-transfected cells (Homo sapiens, UniProt P22607); assay: Ba/F3-FGFR3 (minus IL3) cellular proliferation assay, Alamar Blue; settings: for BAF3-FGFR 3 (MIN IL3) 96 well pIC50: minus IL3, 96 well; for BAF3-FGFR 3 (MIN IL3) 384 well pIC50: minus IL3, 384 well
Sequence of Ba/F3-FGFR3-transfected cells (P22607 whole entry, change not shown): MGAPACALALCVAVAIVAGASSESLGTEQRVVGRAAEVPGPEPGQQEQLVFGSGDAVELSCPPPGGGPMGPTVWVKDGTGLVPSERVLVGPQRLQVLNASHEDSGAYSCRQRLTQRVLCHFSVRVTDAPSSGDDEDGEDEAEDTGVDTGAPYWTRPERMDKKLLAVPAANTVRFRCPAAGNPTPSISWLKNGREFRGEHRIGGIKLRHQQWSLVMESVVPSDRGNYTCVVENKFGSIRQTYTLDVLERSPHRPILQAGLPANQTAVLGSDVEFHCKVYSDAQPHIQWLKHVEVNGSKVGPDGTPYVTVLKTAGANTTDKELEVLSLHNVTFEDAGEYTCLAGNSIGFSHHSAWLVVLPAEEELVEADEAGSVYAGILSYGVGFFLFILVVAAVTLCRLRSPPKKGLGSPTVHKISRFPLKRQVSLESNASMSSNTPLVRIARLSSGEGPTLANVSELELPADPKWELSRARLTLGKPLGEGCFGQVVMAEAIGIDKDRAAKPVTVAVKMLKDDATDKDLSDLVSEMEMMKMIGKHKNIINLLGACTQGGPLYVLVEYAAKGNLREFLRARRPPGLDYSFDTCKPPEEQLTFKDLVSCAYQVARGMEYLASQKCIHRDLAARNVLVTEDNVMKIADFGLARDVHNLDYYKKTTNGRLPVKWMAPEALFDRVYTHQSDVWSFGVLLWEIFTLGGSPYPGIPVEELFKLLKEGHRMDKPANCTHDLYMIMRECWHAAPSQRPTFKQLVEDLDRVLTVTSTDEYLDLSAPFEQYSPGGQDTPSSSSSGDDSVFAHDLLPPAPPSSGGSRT
Protocol: Ba/F3-FGFR3 (Minus IL3 or Plus IL3) (Cellular Proliferation Assay)
as §1
as §2, with “Ba/F3-FGFR3-transfected” for “Ba/F3-FGFR1-transfected”

[3] = biological target: T1, Ba/F3-Flt3-transfected cells (Homo sapiens, UniProt P36888, cells depend on it, form not given); assay: Ba/F3-Flt3 (minus IL3) cellular proliferation assay, Alamar Blue; settings: minus IL3
T1 sequence (P36888 1-993): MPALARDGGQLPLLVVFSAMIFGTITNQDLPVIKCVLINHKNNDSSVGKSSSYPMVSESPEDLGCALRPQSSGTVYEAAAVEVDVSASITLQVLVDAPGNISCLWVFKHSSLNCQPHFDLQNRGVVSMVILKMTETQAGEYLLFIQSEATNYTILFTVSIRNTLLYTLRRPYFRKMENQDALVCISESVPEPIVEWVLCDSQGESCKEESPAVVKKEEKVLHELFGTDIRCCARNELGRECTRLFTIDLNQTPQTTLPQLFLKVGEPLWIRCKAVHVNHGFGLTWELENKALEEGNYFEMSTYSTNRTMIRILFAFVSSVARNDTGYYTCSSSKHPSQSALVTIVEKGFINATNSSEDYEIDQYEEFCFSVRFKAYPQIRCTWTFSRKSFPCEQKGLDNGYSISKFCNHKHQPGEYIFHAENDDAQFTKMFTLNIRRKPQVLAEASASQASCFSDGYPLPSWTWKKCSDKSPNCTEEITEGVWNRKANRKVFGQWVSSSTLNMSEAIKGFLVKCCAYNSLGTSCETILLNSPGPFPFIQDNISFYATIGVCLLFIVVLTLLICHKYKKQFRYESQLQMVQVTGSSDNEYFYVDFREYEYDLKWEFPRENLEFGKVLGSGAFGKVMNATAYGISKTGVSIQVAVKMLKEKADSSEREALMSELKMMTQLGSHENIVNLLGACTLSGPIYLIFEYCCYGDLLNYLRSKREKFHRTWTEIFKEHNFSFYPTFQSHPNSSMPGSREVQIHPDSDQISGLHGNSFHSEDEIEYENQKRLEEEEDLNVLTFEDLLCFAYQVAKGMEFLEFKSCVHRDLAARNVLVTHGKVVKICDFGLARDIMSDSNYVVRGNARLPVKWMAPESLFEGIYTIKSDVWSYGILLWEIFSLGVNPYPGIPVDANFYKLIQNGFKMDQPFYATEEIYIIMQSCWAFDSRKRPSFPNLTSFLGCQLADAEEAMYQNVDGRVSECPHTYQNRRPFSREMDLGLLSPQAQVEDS
Protocol: (§3) Ba/F3-Flt3 (Minus IL3 or Plus IL3) (Cellular Proliferation Assay)
as §1
as §2, with “Ba/F3-Flt3-transfected” for “Ba/F3-FGFR1-transfected”

[4] = test system: Ba/F3-Flt3-transfected cells in the presence of 10 ng/ml murine IL3; assay: Ba/F3-Flt3 (plus IL3) cellular proliferation counterscreen, Alamar Blue; settings: plus 10 ng/ml murine IL3; for IC50: Mus musculus, read-out: BAF3-FLT3 (PLUS IL3) 384 well pIC50 (converted)
Protocol: as §3
as §2, with “a 384” for “a 96”, “plate, 100 nl of compound dilution in DMSO was sprayed before adding 50” for “plate, 180”, “containing 20000” for “containing 10000”, “of Ba/F3-Flt3-transfected cells.” for “of Ba/F3-FGFR1-transfected cells were pipette and 20 μl of compound dilution in DMSO was added.”, “hours, 10” for “hours, 40”
As a counterscreen the same experiment was performed in the presence of 10 ng/ml murine IL3.
as §2, with “Ba/F3-Flt3-transfected” for “Ba/F3-FGFR1-transfected”

Sequence of Ba/F3-FGFR1-transfected cells (P11362 whole entry, change not shown): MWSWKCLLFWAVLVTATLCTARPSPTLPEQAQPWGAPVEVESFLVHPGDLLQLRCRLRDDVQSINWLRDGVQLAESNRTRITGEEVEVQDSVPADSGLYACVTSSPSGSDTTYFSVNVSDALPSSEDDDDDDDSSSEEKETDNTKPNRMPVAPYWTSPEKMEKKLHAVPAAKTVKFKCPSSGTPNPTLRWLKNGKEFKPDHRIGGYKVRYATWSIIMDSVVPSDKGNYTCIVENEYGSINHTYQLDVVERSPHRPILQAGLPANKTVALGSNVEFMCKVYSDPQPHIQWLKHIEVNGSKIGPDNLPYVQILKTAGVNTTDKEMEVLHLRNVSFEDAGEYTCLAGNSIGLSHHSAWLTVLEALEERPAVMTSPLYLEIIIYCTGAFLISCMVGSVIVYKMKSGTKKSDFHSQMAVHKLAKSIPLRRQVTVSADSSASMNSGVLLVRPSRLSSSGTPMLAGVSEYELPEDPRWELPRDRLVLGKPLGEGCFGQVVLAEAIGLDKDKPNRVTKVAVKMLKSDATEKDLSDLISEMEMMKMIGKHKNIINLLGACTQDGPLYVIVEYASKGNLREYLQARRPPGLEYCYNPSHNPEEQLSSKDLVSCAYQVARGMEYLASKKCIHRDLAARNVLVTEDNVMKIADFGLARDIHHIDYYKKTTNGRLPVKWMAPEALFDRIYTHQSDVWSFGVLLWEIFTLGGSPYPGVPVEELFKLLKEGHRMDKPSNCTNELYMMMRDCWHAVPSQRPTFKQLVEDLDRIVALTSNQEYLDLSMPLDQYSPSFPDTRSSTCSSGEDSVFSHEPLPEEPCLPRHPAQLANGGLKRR

Row | BAF3-FGFR 1 (MIN IL3) 96 well pIC50 ([1]; minus IL3, 96 well) | BAF3-FGFR 1 (MIN IL3) 384 well pIC50 [1] | BAF3-FGFR 3 (MIN IL3) 96 well pIC50 [2] | BAF3-FGFR 3 (MIN IL3) 384 well pIC50 [2] | BAF3-FLT3 (MIN IL3) 96 well pIC50 [3] | BAF3-FLT3 (MIN IL3) 384 well pIC50 [3] | Structure (SMILES) | IC50 [4] [µM] | BAF3-FLT3 (PLUS IL3) 384 well pIC50 [4]
1 | – | 6.22 | – | 5.9 | – | 5.28 | COc1cc(OC)cc(N(CCN2CCNCC2)c2ccc3ncc(-c4ccc(N)nc4)nc3c2)c1 [Compound 59] | > 10 | –
2 | – | 6.15 | – | ~6.14 | – | 5.32 | COc1cc(OC)cc(N(CCO)c2ccc3ncc(-c4ccc(N5CCN(C)CC5)nc4)nc3c2)c1 [Compound 163] | > 10 | –
3 | – | 6.8 | – | 7.13 | – | <5 | COc1cc(OC)cc(N(CC#Cc2ncccn2)c2ccc3ncc(-c4cccnc4)nc3c2)c1 [Compound 2] | > 10 | –
4 | – | <5 | – | <5 | – | <5 | COc1cc(OC)cc(N(CCCO)c2ccc3ncc(-c4ccnc(-c5ccnc(Cl)c5)c4)nc3c2)c1 [Compound 133] | > 10 | –
5 | – | 5.98 | – | 5.8 | – | <5 | COc1cc(OC)cc(N(CCCO)c2ccc3ncc(-c4ccnc(C(=O)NCCOCCO)c4)nc3c2)c1 [Compound 186] | > 10 | –
6 | – | 6.29 | – | 6.3 | – | <5 | COCC(O)CN(c1cc(OC)cc(OC)c1)c1ccc2ncc(-c3cccnc3)nc2c1 (single isomer, unassigned) [Compound 47] | – | <5
7 | – | 6.31 | – | 6.23 | – | <5 | COc1cc(OC)cc(N(CCO)c2ccc3ncc(-n4cnc(CO)c4)nc3c2)c1 [Compound 38] | > 10 | –
8 | – | 6.04 | – | 6.16 | – | 5.47 | COc1cc(OC)cc(N(CCNC(C)C)c2ccc3ncc(-c4ccc(N5CCN(C)CC5)nc4)nc3c2)c1 [Compound 170] | 5.01 | –
9 | – | 6.28 | – | 6.25 | – | <5 | COc1cc(OC)cc(N(CCCO)c2ccc3ncc(-c4ccnc(C(=O)N5CCOCC5)c4)nc3c2)c1 [Compound 43] | > 10 | –
10 | – | 5.1 | – | 5.2 | – | <5 | COc1cc(OC)cc(N(CCCO)c2ccc3ncc(-c4ccnc(C(=O)NCCCCCN)c4)nc3c2)c1 [Compound 130] | > 10 | –

The next lines start with the compound.

Row | Structure (SMILES) | BAF3-FGFR 1 (MIN IL3) 96 well pIC50 ([1]; minus IL3, 96 well) | BAF3-FGFR 1 (MIN IL3) 384 well pIC50 [1] | BAF3-FGFR 3 (MIN IL3) 96 well pIC50 [2] | BAF3-FGFR 3 (MIN IL3) 384 well pIC50 [2] | BAF3-FLT3 (MIN IL3) 96 well pIC50 [3] | BAF3-FLT3 (MIN IL3) 384 well pIC50 [3] | IC50 [4] [µM] | BAF3-FLT3 (PLUS IL3) 384 well pIC50 [4]
11 | COc1cc(OC)cc(N(CC2CC2)c2ccc3ncc(C(=O)N4CCC4)nc3c2)c1 [Compound 93] | <5 | <5 | <5 | <5 | <5 | <5 | > 10 | –
12 | COc1cc(OC)cc(N(CC2CC2)c2ccc3ncc(N4CCN(CCO)CC4)nc3c2)c1 [Compound 49] | – | <5 | 5.5 | <5 | 5.2 | <5 | > 10 | –
13 | COc1cc(OC)cc(N(CCNC(C)C)c2ccc3ncc(C(=O)NCCCN4CCCCC4)nc3c2)c1 [Compound 182] | – | 5.89 | – | 5.64 | – | <5 | > 10 | –
14 | COc1cc(OC)cc(N(CCNC(C)C)c2ccc3ncc(C(=O)N4CCCCC4)nc3c2)c1 [Compound 180] | – | 5.51 | – | 5.28 | – | <5 | > 10 | –
15 | COc1cc(OC)cc(N(CCCNCCCO)c2ccc3ncc(-c4ccnc(C(=O)NCCCCN)c4)nc3c2)c1 [Compound 132] | – | 5.8 | – | 5.57 | – | 5.31 | ~5.5 | –
16 | COc1cc(OC)cc(N(CCO)c2ccc3ncc(-c4ccc(N5CCN(C(=O)OC(C)(C)C)CC5)cc4)nc3c2)c1 [Compound 156] | – | 5.7 | – | 5.79 | – | <5 | > 10 | –
17 | COc1cc(OC)cc(N(CCNC(C)C)c2ccc3ncc(-n4cnc(COC(C)=O)c4)nc3c2)c1 [Compound 167] | – | 7.13 | – | 7.09 | – | <5 | > 10 | –
18 | COc1cc(OC)cc(N(CCO)c2ccc3ncc(/C(C)=N/OC(C)(C)C)nc3c2)c1 [Compound 171] | – | <5 | – | <5 | – | <5 | > 10 | –
19 | COc1cc(OC)cc(N(CCNC(C)C)c2ccc3ncc(C(=O)NCCCN4CCN(C)CC4)nc3c2)c1 [Compound 159] | – | 5.74 | – | 5.82 | – | <5 | > 10 | –
20 | COc1cc(OC)cc(N(CCCNCC(F)(F)F)c2ccc3ncc(C(=O)NCCN4CCOCC4)nc3c2)c1 [Compound 158] | – | <5 | – | <5 | – | <5 | > 10 | –
